Measurements: patent US8952128B2, “Somatostatin-dopamine chimeric analogs” (priority 2012, dated 2015)
Numbered stars: 1 amine (or outer) side, 2 acyl side, 3 side chain; on linkers, the order of the positions; unused ones are H or OH. Bridge positions count the residues as written; N and C are the ends. Square brackets hold non-standard residues; d marks the D form. Peptide text beside a SMILES is read from it. X1 = CN1C[C@H](CSCCN(CCSC[C@@H]2C[C@@H]3c4cccc5[nH]cc(c45)C[C@H]3N(C)C2)[C@H](CCCCN[*:2])C(=O)[*:1])C[C@@H]2c3cccc4[nH]cc(c34)C[C@H]21; Phe(4-F) = N[C@@H](Cc1ccc(F)cc1)C(=O)O

Biological target: hSSTR2 (Homo sapiens (Human), UniProt P30874)
Assay: Intracellular calcium mobilization assay (FLIPR Calcium 4), hSSTR2;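 also: agonist activity read as intracellular calcium rise in cells expressing human SSTR2, loaded with a calcium-sensitive dye for 60 min at 37 °C, measured by FLIPR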
Format: cell-based
Settings: for Emax: read-out: hSSTR2 % Emax ± SEM; for improvement in EC50 and/or % Emax over Reference Compound B: calcium mobilization

hSSTR2, sequence (P30874 whole entry): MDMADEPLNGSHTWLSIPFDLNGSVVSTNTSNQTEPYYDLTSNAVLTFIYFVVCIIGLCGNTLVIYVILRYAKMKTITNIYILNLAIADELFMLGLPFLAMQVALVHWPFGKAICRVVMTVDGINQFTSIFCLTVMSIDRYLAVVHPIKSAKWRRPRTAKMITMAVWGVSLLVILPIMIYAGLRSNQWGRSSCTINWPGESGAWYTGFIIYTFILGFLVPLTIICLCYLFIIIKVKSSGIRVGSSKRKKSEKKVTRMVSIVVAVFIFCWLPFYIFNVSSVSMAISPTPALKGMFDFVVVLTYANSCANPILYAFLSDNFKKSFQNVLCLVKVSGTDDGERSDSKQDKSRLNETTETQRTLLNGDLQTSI

Compound | Emax [%] | improvement in EC50 and/or % Emax over Reference Compound B | hSSTR2 % Emax ± SEM (maximal effect in percentage of the maximal effect of SRIF-14) [%]
C[C@@H](O)[C@@H]1NC(=O)[C@H](CCCCN)NC(=O)[C@@H](Cc2c[nH]c3ccccc23)NC(=O)[C@H](Cc2ccccc2)NC(=O)[C@H](Cc2ccccc2)NC(=O)[C@H](CCCNC(=N)N)NC(=O)[C@H](NCCSC[C@@H]2C[C@@H]3c4cccc5[nH]cc(c45)C[C@H]3N(C)C2)CCCCNC(=O)[C@H](Cc2cc(F)cc(F)c2)NC1=O [Compound 6B, Dop1-psi(CH2NH)-cyclo(DLys-Arg-Phe-Phe-DTrp-Lys-Thr-3,5FPhe)] | 95.2 ± 6.8 |  | 
C[C@@H](O)[C@@H]1NC(=O)[C@H](CCCCN)NC(=O)[C@@H](Cc2c[nH]c3ccccc23)NC(=O)[C@H](Cc2ccccc2)NC(=O)[C@H](Cc2ccccc2)NC(=O)[C@H](CCCNC(=N)N)NC(=O)[C@H](NCCCC[C@@H]2C[C@@H]3c4cccc5[nH]cc(c45)C[C@H]3N(C)C2)CCCCNC(=O)[C@H](Cc2ccc(F)cc2)NC1=O [Compound 2, (D-6-methyl-8β-ergolinyl)-butanoyl-psi(CH2NH)-cyclo(DLys-Arg-Phe-Phe-DTrp-Lys-Thr-4FPhe)] | 100 ± 1.7 |  | 
C[C@@H](O)[C@@H]1NC(=O)[C@H](CCCCN)NC(=O)[C@@H](Cc2c[nH]c3ccccc23)NC(=O)[C@H](Cc2ccccc2)NC(=O)[C@H](Cc2ccccc2)NC(=O)[C@H](CCCNC(=N)N)NC(=O)[C@H](NC[C@H](Cc2ccc(O)cc2)NC(=O)CSC[C@@H]2C[C@@H]3c4cccc5[nH]cc(c45)C[C@H]3N(C)C2)CCCCNC(=O)[C@H](Cc2ccc(O)cc2)NC1=O [Compound 33, Dop1-Tyr-psi(CH2NH)-cyclo(DLys-Arg-Phe-Phe-DTrp-Lys-Thr-Tyr)] | 95.7 ± 5.1 | statistically significant improvement | 
C[C@@H](O)[C@@H]1NC(=O)[C@H](CCCCN)NC(=O)[C@@H](Cc2c[nH]c3ccccc23)NC(=O)[C@H](Cc2ccccc2)NC(=O)[C@H](Cc2ccccc2)NC(=O)[C@H](CCCNC(=N)N)NC(=O)[C@H](NCCSC[C@@H]2C[C@@H]3c4cccc5[nH]cc(c45)C[C@H]3N(C)C2)CCCCNC(=O)[C@H](Cc2cccc(F)c2)NC1=O [Compound 6C, Dop1-psi(CH2NH)-cyclo(DLys-Arg-Phe-Phe-DTrp-Lys-Thr-3FPhe)] | 97.7 ± 6.9 |  | 
C[C@@H](O)[C@@H]1NC(=O)[C@H](CCCCN)NC(=O)[C@@H](Cc2c[nH]c3ccccc23)NC(=O)[C@H](Cc2ccccc2)NC(=O)[C@H](Cc2ccccc2)NC(=O)[C@H](CCCNC(=N)N)NC(=O)[C@H](NC[C@H](Cc2ccc(O)cc2)NC(=O)CS(=O)(=O)C[C@@H]2C[C@@H]3c4cccc5[nH]cc(c45)C[C@H]3N(C)C2)CCCCNC(=O)[C@H](Cc2ccc(F)cc2)NC1=O [Compound 19, Dop1(SO2)-Tyr-psi(CH2NH)-cyclo(DLys-Arg-Phe-Phe-DTrp-Lys-Thr-4FPhe)] | 99.5 ± 1.8 |  | 
C[C@@H](O)[C@@H]1NC(=O)[C@H](CCCCN)NC(=O)[C@@H](Cc2c[nH]c3ccccc23)NC(=O)[C@H](Cc2ccccc2)NC(=O)[C@H](Cc2ccccc2)NC(=O)[C@H](CCCNC(=N)N)NC(=O)[C@H](N(CCSC[C@@H]2C[C@@H]3c4cccc5[nH]cc(c45)C[C@H]3N(C)C2)CCSC[C@@H]2C[C@@H]3c4cccc5[nH]cc(c45)C[C@H]3N(C)C2)CCCCNC(=O)[C@H](Cc2ccc(F)cc2)NC1=O [Compound 39, bis[Dop1-psi(CH2N)]-cyclo(DLys-Arg-Phe-Phe-DTrp-Lys-Thr-4FPhe)] (RFF[dW]KT[Phe(4-F)]; linker N-C via X1) | 87.1 ± 4.7 |  | 
C[C@@H](O)[C@@H]1NC(=O)[C@H](CCCCN)NC(=O)[C@@H](Cc2c[nH]c3ccccc23)NC(=O)[C@H](Cc2ccccc2)NC(=O)[C@H](Cc2ccccc2)NC(=O)[C@H](CCCNC(=N)N)NC(=O)[C@H](NCCSC[C@@H]2C[C@@H]3c4cccc5[nH]cc(c45)C[C@H]3N(C)C2)CCCCNC(=O)[C@H](Cc2ccc(F)c(F)c2)NC1=O [Compound 6A, Dop1-psi(CH2NH)-cyclo(DLys-Arg-Phe-Phe-DTrp-Lys-Thr-3,4FPhe)] | 99.5 ± 2.6 |  | 
CC(=O)N(CCCNC[C@@H]1C[C@@H]2c3cccc4[nH]cc(c34)C[C@H]2N(C)C1)[C@@H]1CCCCNC(=O)[C@H](Cc2ccc(F)cc2)NC(=O)[C@H]([C@@H](C)O)NC(=O)[C@H](CCCCN)NC(=O)[C@@H](Cc2c[nH]c3ccccc23)NC(=O)[C@H](Cc2ccccc2)NC(=O)[C@H](Cc2ccccc2)NC(=O)[C@H](CCCNC(=N)N)NC1=O [Compound 22, 3-[N-(D-6-methyl-8β-ergolinylmethyl)]-aminopropionyl-psi(CH2NAc)-cyclo(DLys-Arg-Phe-Phe-DTrp-Lys-Thr-4FPhe)] | 99.1 ± 12.6 |  | 
CC(=O)N(CCCN[C@@H]1CCCCNC(=O)[C@H](Cc2ccc(F)cc2)NC(=O)[C@H]([C@@H](C)O)NC(=O)[C@H](CCCCN)NC(=O)[C@@H](Cc2c[nH]c3ccccc23)NC(=O)[C@H](Cc2ccccc2)NC(=O)[C@H](Cc2ccccc2)NC(=O)[C@H](CCCNC(=N)N)NC1=O)C[C@@H]1C[C@@H]2c3cccc4[nH]cc(c34)C[C@H]2N(C)C1 [Compound 29A, 3-[N-acetyl-(D-6-methyl-8β-ergolinylmethyl)]-aminopropionyl-psi(CH2NH)-cyclo(DLys-Arg-Phe-Phe-DTrp-Lys-Thr-4FPhe)] | 100 ± 23.2 |  | 
C[C@@H](O)[C@@H]1NC(=O)[C@H](CCCCN)NC(=O)[C@@H](Cc2c[nH]c3ccccc23)NC(=O)[C@H](Cc2ccncc2)NC(=O)[C@H](Cc2ccccc2)NC(=O)[C@H](CCCNC(=N)N)NC(=O)[C@H](NC[C@H](CCCCNC(=O)C[S+]([O-])C[C@@H]2C[C@@H]3c4cccc5[nH]cc(c45)C[C@H]3N(C)C2)NC(=O)C[S+]([O-])C[C@@H]2C[C@@H]3c4cccc5[nH]cc(c45)C[C@H]3N(C)C2)CCCCNC(=O)[C@H](Cc2ccccc2)NC1=O (stereo partly drawn) [Compound 17, Dop1(SO)-Lys[Dop1(SO)]-psi(CH2NH)-cyclo(DLys-Arg-Phe-4Pal-DTrp-Lys-Thr-Phe)] | 105 ± 4.2 |  | 
C[C@@H](O)[C@@H]1NC(=O)[C@H](CCCCN)NC(=O)[C@@H](Cc2c[nH]c3ccccc23)NC(=O)[C@H](Cc2ccccc2)NC(=O)[C@H](Cc2ccccc2)NC(=O)[C@H](CCCNC(=N)N)NC(=O)[C@H](NCCCS(=O)(=O)C[C@@H]2C[C@@H]3c4cccc5[nH]cc(c45)C[C@H]3N(C)C2)CCCCNC(=O)[C@H](Cc2ccc(F)cc2)NC1=O [Compound 48, (D-6-methyl-8β-ergolinylmethyl)-sulfonylpropyl-cyclo(DLys-Arg-Phe-Phe-DTrp-Lys-Thr-4FPhe)] | 95.5 ± 11.9 |  | 
C[C@@H](O)[C@@H]1NC(=O)[C@H](CCCCN)NC(=O)[C@@H](Cc2c[nH]c3ccccc23)NC(=O)[C@H](Cc2ccncc2)NC(=O)[C@H](Cc2ccccc2)NC(=O)[C@H](CCCNC(=N)N)NC(=O)[C@H](NC[C@H](Cc2ccc(O)cc2)NC(=O)CS(=O)(=O)C[C@@H]2C[C@@H]3c4cccc5[nH]cc(c45)C[C@H]3N(C)C2)CCCCNC(=O)[C@H](Cc2ccccc2)NC1=O [Compound 21, Dop1(SO2)-Tyr-psi(CH2NH)-cyclo(DLys-Arg-Phe-4Pal-DTrp-Lys-Thr-Phe)] | 100 ± 1.8 |  | 
C[C@@H](O)[C@@H]1NC(=O)[C@H](CCCCN)NC(=O)[C@@H](Cc2c[nH]c3ccccc23)NC(=O)[C@H](Cc2ccccc2)NC(=O)[C@H](Cc2ccccc2)NC(=O)[C@H](CCCNC(=N)N)NC(=O)[C@H](NCCSC[C@@H]2C[C@@H]3c4cccc5[nH]cc(c45)C[C@H]3N(C)C2)CCCCNC(=O)[C@H](Cc2ccccc2)NC1=O [Compound 26, Dop1-psi(CH2NH)-cyclo(DLys-Arg-Phe-Phe-DTrp-Lys-Thr-Phe)] | 90.2 ± 12.6 |  | 
Dop1-cyclo(DLys-Arg-Phe-Phe-DTrp-Lys-Thr-Phe) [Compound 44] |  |  | 97.1 ± 5.9
C[C@@H](O)[C@@H]1NC(=O)[C@H](CCCCN)NC(=O)[C@@H](Cc2c[nH]c3ccccc23)NC(=O)[C@H](Cc2ccccc2)NC(=O)[C@H](Cc2ccccc2)NC(=O)[C@H](CCCNC(=N)N)NC(=O)[C@@H](NC[C@H](Cc2ccc(O)cc2)NC(=O)CSC[C@@H]2C[C@@H]3c4cccc5[nH]cc(c45)C[C@H]3N(C)C2)CCCCNC(=O)[C@H](Cc2ccccc2)NC1=O [Compound 31, Dop1-Tyr-psi(CH2NH)-cyclo(Lys-Arg-Phe-Phe-DTrp-Lys-Thr-Phe)] | 85.1 ± 4.7 |  | 
C[C@@H](O)[C@@H]1NC(=O)[C@H](CCCCN)NC(=O)[C@@H](Cc2c[nH]c3ccccc23)NC(=O)[C@H](Cc2ccncc2)NC(=O)[C@H](Cc2ccccc2)NC(=O)[C@H](CCCNC(=N)N)NC(=O)[C@H](NC[C@H](Cc2ccc(O)cc2)NC(=O)C[S+]([O-])C[C@@H]2C[C@@H]3c4cccc5[nH]cc(c45)C[C@H]3N(C)C2)CCCCNC(=O)[C@H](Cc2ccccc2)NC1=O (stereo partly drawn) [Compound 15, Dop1(SO)-Tyr-psi(CH2NH)-cyclo(DLys-Arg-Phe-4Pal-DTrp-Lys-Thr-Phe)] | 99.9 ± 1.9 |  | 
C[C@@H](O)[C@@H]1NC(=O)[C@H](CCCCN)NC(=O)[C@@H](Cc2c[nH]c3ccccc23)NC(=O)[C@H](Cc2ccccc2)NC(=O)[C@H](Cc2ccccc2)NC(=O)[C@H](CCCNC(=N)N)NC(=O)[C@H](NCCSC[C@@H]2C[C@@H]3c4cccc5[nH]cc(c45)C[C@H]3N(C)C2)CCCCNC(=O)[C@H](Cc2ccccc2F)NC1=O [Compound 6D, Dop1-psi(CH2NH)-cyclo(DLys-Arg-Phe-Phe-DTrp-Lys-Thr-2FPhe)] | 96.9 ± 8.7 |  | 
C[C@@H](O)[C@@H]1NC(=O)[C@H](CCCCN)NC(=O)[C@@H](Cc2c[nH]c3ccccc23)NC(=O)[C@H](Cc2ccccc2)NC(=O)[C@H](Cc2ccccc2)NC(=O)[C@H](CCCNC(=N)N)NC(=O)[C@H](NC[C@H](Cc2ccc(O)cc2)NC(=O)CSC[C@@H]2C[C@@H]3c4cccc5[nH]cc(c45)C[C@H]3N(C)C2)CCCCNC(=O)[C@H](Cc2ccccc2)NC1=O [Compound 32, Dop1-Tyr-psi(CH2NH)-cyclo(DLys-Arg-Phe-Phe-DTrp-Lys-Thr-Phe)] | 87.5 ± 4.3 | statistically significant improvement | 
C[C@@H](O)[C@@H]1NC(=O)[C@H](CCCCN)NC(=O)[C@@H](Cc2c[nH]c3ccccc23)NC(=O)[C@H](Cc2ccccc2)NC(=O)[C@H](Cc2ccccc2)NC(=O)[C@H](CCCNC(=N)N)NC(=O)[C@H](NCC[S+]([O-])C[C@@H]2C[C@@H]3c4cccc5[nH]cc(c45)C[C@H]3N(C)C2)CCCCNC(=O)[C@H](Cc2ccc(F)cc2)NC1=O (stereo partly drawn) [Compound 14, Dop1(SO)-psi(CH2NH)-cyclo(DLys-Arg-Phe-Phe-DTrp-Lys-Thr-4FPhe)] | 102 ± 2.2 |  | 
